Experimental data from patent publication US12545637B2, “Extrahepatic targeted cationic lipid compound with high efficiency and low toxicity and its composition” (BEIJING YOUCARE KECHUANG PHARMACEUTICAL TECHNOLOGY CO., LTD., priority 2023, dated 2026).

Assays:
[1] = test system: 293T cells; experiment: Fluorescent detection of Fluc-mRNA (cell transfection efficiency of LNP formulations); type: cell-based
[2] = test system: female BALB/C mice; experiment: In vivo imaging in mice of Fluc-mRNA LNP formulations (mRNA expression and duration)
Procedure, shortened: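 Female BALB/C mice (4-6 weeks, 17-19 g) received LNP carrying […] Fluc-mRNA intramuscularly. At 6h, 24 h, 48h and 7d, fluorescent imaging substrate was given intraperitoneally and after 5 minutes average radiance, as a measure of expressed protein, was imaged on an IVIS Spectrum system.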

[3] = test system: 293T cells; experiment: Fluorescent detection of Fluc-mRNA (cell transfection efficiency of LNP formulations); type: cell-based; remark: listed apart in the source
[4] = test system: 293T cells; experiment: Cell transfection test of LNP formulation of eGFP-mRNA (optimization of preparation conditions); type: cell-based
Protocol: The cationic lipid compound YK-407 synthesized in Example 1 was dissolved in ethanol with DSPC (AVT (Shanghai) Pharmaceutical Technology Co., Ltd.), cholesterol (AVT (Shanghai) Pharmaceutical Technology Co., Ltd.) and DMG-PEG2000 according to a molar ratio of 49:10:39.5:1.5, respectively, to prepare an ethanol lipid solution. The ethanol lipid solution was quickly added to citrate buffer (pH=4-5) by ethanol injection method, and vortexed for 30s for later use. eGFP-mRNA was diluted in citrate buffer (pH=4-5) to give an aqueous mRNA solution. A certain volume of liposome solution and mRNA aqueous solution were used to prepare liposomes at weight ratios of total lipids to mRNA of 5:1, 10:1, 15:1, 20:1, 30:1 and 35:1, respectively. The mixtures were sonicated at 25° C. for 15 min (with an ultrasonic frequency of 40 kHz and an ultrasonic power of 800 W). The resulted liposomes were diluted to 10 times volume with PBS, and then ultrafiltered with a 300KDa ultrafiltration tube to remove ethanol. Then the volume was fixed to a certain volume with PBS to give an LNP formulation encapsulating eGFP-mRNA using cationic lipid YK-407/DSPC/cholesterol/DMG-PEG2000 (49:10:39.5:1.5 in molar percentage).
The LNP formulation encapsulating eGFP-mRNA was prepared according to the method in 1, wherein the molar ratios of cationic lipid YK-407 to neutral lipid DSPC were 1:1, 3:1, 3.5:1, 4:1, 4.5:1, 4.9:1, 10:1, 15:1 and 20:1.
The LNP formulation encapsulating eGFP-mRNA was prepared according to the method in 1, wherein the cationic lipid in the carrier was YK-407, and the molar ratios of the polymer-conjugated lipid DMG-PEG2000 to the carrier were 0.5%, 1.5%, 3.5%, 5%, 10% and 15%, respectively.
The LNP formulation encapsulating eGFP-mRNA was prepared according to the method in 1, wherein the molar ratios of cationic lipid YK-407, neutral lipid DSPC, structured lipid cholesterol and polymer-conjugated lipid DMG-PEG2000 were 75:5:15:5, 49:10:39.5:1.5, 45:10:43.5:1.5, 45:25:20:10, 40:10:48.5:1.5, 35:10:53.5:1.5 and 25:5:65:5, respectively.
Cell recovery and passage: 293T cells were recovered, cultured in a culture dish, and passaged to the required number of cells.
Seeding plate: The cells in the culture dish were digested and counted. Cells were spread in a 96-well plate at 10,000 cells per well and in a 12-well plate at 150,000 cells per well. Cells were cultured overnight until the cells adhered to the wall.
Cell transfection test: The LNP formulation containing 1.5 μg of eGFP-mRNA prepared in Example 2 (the cationic lipid in the carrier was YK-407) and the Lipofectamin 3000 formulation of eGFP-mRNA were added respectively to the cell culture medium of the 12-well plate, and further incubated for 24 hours. The transfection efficiency of different samples was then investigated according to the fluorescence intensity by observing with a fluorescence microscope.

[5] = Particle size and polydispersity index (PDI) of lipid nanoparticles by dynamic light scattering; type: physicochemical
Protocol: The particle size and polydispersity index (PDI) were determined by dynamic light scattering using Malvern laser particle size analyzer.
10 μL of the liposome solution was weighed, diluted to 1 mL with RNase-free deionized water, and added to the sample pool. Each sample was measured in triplicate. The measurement conditions were: […] scattering angle, and 25° C.

SMILES: CCCCCCCCC(CCCCCCCC)C(=O)OCCCCCCN(CCO)CCN(CCO)CCCCCCOC(=O)C(CCCCCCCC)CCCCCCCC [YK-402]
- Relative light unit (RLU) ([1]; LNP with 0.3 μg Fluc-mRNA, 96-well plate, 24 hours): 5044102 RLU
- cell transfection efficiency, times that of YK-415 ([1]; ratio vs YK-415): 16.93
- cell transfection efficiency, times that of YK-417 ([1]; ratio vs YK-417): 43.01
- cell transfection efficiency, times that of YK-418 ([1]; ratio vs YK-418): 45.34
- cell transfection efficiency, times that of YK-424 ([1]; ratio vs YK-424): 1.75
- RLU value, times that of compound 21 ([1]; ratio vs compound 21): 3.34
- RLU value, times that of compound 23 ([1]; ratio vs compound 23): 3.60
- average radiation intensity, times that of ALC-0315 ([2]; 6 h): 1.75
- average radiation intensity, times that of HHMA ([2]; 6 h): 2.22
- average radiation intensity, times that of SM-102 ([2]; 6 h): 2.13
- average radiation intensity, times that of compound 21 ([2]; 6 h): 2.45
- average radiation intensity, times that of compound 23 ([2]; 6 h): 2.53
- expression amount in mice, times that of YK-415 ([2]; 6 h): 12.48
- expression amount in mice, times that of YK-417 ([2]; 6 h): 24.31
- mRNA expression in mice, times that of YK-411 ([2]; 6 h): 251.30
- average radiation intensity, times that of ALC-0315 ([2]; 24 h): 4.21
- average radiation intensity, times that of HHMA ([2]; 24 h): 6.65
- average radiation intensity, times that of SM-102 ([2]; 24 h): 6.47
- average radiation intensity, times that of compound 21 ([2]; 24 h): 7.19
- average radiation intensity, times that of compound 23 ([2]; 24 h): 7.91
- expression amount in mice, times that of YK-415 ([2]; 24 h): 12.38
- expression amount in mice, times that of YK-417 ([2]; 24 h): 39.95
- mRNA expression in mice, times that of YK-411 ([2]; 24 h): 394.86
- average radiation intensity, times that of ALC-0315 ([2]; 48 h): 8.62
- average radiation intensity, times that of HHMA ([2]; 48 h): 10.37
- average radiation intensity, times that of SM-102 ([2]; 48 h): 10.52
- average radiation intensity, times that of compound 21 ([2]; 48 h): 10.96
- average radiation intensity, times that of compound 23 ([2]; 48 h): 10.50
- expression amount in mice, times that of YK-415 ([2]; 48 h): 21.90
- expression amount in mice, times that of YK-417 ([2]; 48 h): 49.08
- mRNA expression in mice, times that of YK-411 ([2]; 48 h): 354.61
- average radiation intensity, times that of ALC-0315 ([2]; 7 d): 1.42
- average radiation intensity, times that of HHMA ([2]; 7 d): 1.67
- average radiation intensity, times that of SM-102 ([2]; 7 d): 1.48
- average radiation intensity, times that of compound 21 ([2]; 7 d): 1.56
- average radiation intensity, times that of compound 23 ([2]; 7 d): 1.63
- expression amount in mice, times that of YK-415 ([2]; 7 d): 2.46
- expression amount in mice, times that of YK-417 ([2]; 7 d): 4.35
- mRNA expression in mice, times that of YK-411 ([2]; 7 d): 20.71
- average radiation intensity, 6 h ([2]; Fluc-mRNA LNP intramuscular, 6 h after administration): 1470100
- average radiation intensity, 24 h ([2]; Fluc-mRNA LNP intramuscular, 24 h after administration): 798408
- average radiation intensity, 48 h ([2]; Fluc-mRNA LNP intramuscular, 48 h after administration): 345740
- average radiation intensity, 7 d ([2]; Fluc-mRNA LNP intramuscular, 7 d after administration): 9940
- RLU value, times that of ALC-0315 ([3]; ratio vs ALC-0315): 2.30
- RLU value, times that of HHMA ([3]; ratio vs HHMA): 2.43
- RLU value, times that of Lipofectamine 3000 ([3]; ratio vs Lipofectamine 3000): 4.20
- RLU value, times that of YK-009 ([3]; ratio vs YK-009): 0.98
- RLU value, times that of YK-405 ([3]; ratio vs YK-405): 1.58
- RLU value, times that of YK-406 ([3]; ratio vs YK-406): 64.46
- RLU value, times that of YK-408 ([3]; ratio vs YK-408): 3.42
- RLU value, times that of YK-409 ([3]; ratio vs YK-409): 7.53
- RLU value, times that of YK-410 ([3]; ratio vs YK-410): 12.37
- cell transfection efficiency, times that of YK-412 ([3]; ratio vs YK-412): 1.50
- cell transfection efficiency, times that of YK-413 ([3]; ratio vs YK-413): 3.66
- cell transfection efficiency, times that of YK-414 ([3]; ratio vs YK-414): 11.36
- cell transfection efficiency, times that of YK-416 ([3]; ratio vs YK-416): 1.27
- cell transfection efficiency, times that of YK-419 ([3]; ratio vs YK-419): 1.59
- cell transfection efficiency, times that of YK-420 ([3]; ratio vs YK-420): 1.25
- cell transfection efficiency, times that of YK-421 ([3]; ratio vs YK-421): 10.81
- transfection efficiency at different molar ratios of polymer-conjugated lipid DMG-PEG2000 to carrier ([4]; 0.5% to 15%): same results
- transfection effect at different molar ratios of cationic lipid, neutral lipid, structured lipid and polymer-conjugated lipid ([4]; 75:5:15:5 to 25:5:65:5): same results
- PDI ([5]; LNP formulation of the cationic lipid, 25° C.): 17.1%
- Particle size ([5]; LNP formulation of the cationic lipid/DSPC/cholesterol/DMG-PEG2000 49:10:39.5:1.5, 25° C.): 155 nm
